System: Pythium ultimum
Assay: Mycelial growth test
Assay type: cell-based
Conditions: PU; for inhibition at 5 ppm / inhibition at 10 ppm / inhibition at 20 ppm / inhibition at 40 ppm: Globisporangium ultimum, 72 h, read-out: Percent Fungus Growth Inhibition

N#CCc1ccc(Oc2nsnc(Cl)c2=O)cc1 [Compound 46, 3-chloro-5-[(4-cyanomethyl)-phenoxy]4H--1,2,6-thiadiazin-4-one]
inhibition at 5 ppm: 0% | inhibition at 10 ppm: 40% | inhibition at 20 ppm (20 ppm): 87% | inhibition at 40 ppm: 100%

O=C(Nc1ccccc1)Oc1ccc(Oc2nsnc(Cl)c2=O)cc1 [Compound 37, 3-chloro-5-[4-(phenylaminocarbonyloxy)phenoxy]-4H-1,2,6,-thiadiazin-4-one]
inhibition at 5 ppm: 100% | inhibition at 10 ppm: 0% | inhibition at 20 ppm (20 ppm): 20% | inhibition at 40 ppm: 100%

O=C(Nc1ccccc1)Nc1ccc(Oc2nsnc(Cl)c2=O)cc1 [Compound 29, 3-chloro-5-[4-(3-phenylureido)-phenoxy]-4H--1,2,6-thiadiazin-4-one]
inhibition at 5 ppm: 0% | inhibition at 10 ppm: 0% | inhibition at 20 ppm (20 ppm): 0% | inhibition at 40 ppm: 0%

Cc1cccc(C)c1Oc1nsnc(Cl)c1=O [Compound 24, 3-chloro-5-(2,6-dimethylphenoxy)-4H--1,2,6-thiadiazin-4-one]
inhibition at 5 ppm: 0% | inhibition at 10 ppm: 47% | inhibition at 20 ppm (20 ppm): 64% | inhibition at 40 ppm: 100%

O=C(O)c1ccc(Oc2nsnc(Cl)c2=O)cc1 [Compound 50, 3-(4-carboxyphenoxy)-5-chloro-4H--1,2,6-thiadiazin-4-one]
inhibition at 5 ppm: 20% | inhibition at 10 ppm: 0% | inhibition at 20 ppm (20 ppm): 47% | inhibition at 40 ppm: 100%

COc1ccc(Cl)c(Oc2nsnc(Cl)c2=O)c1 [Compound 51, 3-chloro-5-[(2-chloro-5-methoxy)phenoxy]-4H--1,2,6-thiadiazin-4-one]
inhibition at 5 ppm: 0% | inhibition at 10 ppm: 31% | inhibition at 20 ppm (20 ppm): 91% | inhibition at 40 ppm: 100%

O=c1c(Cl)nsnc1Oc1ccc(O)cc1 [Compound 35, 3-chloro-5-(4-hydroxyphenoxy)-4H-1,2,6-thiadiazin-4-one]
inhibition at 5 ppm: 0% | inhibition at 10 ppm: 11% | inhibition at 20 ppm (20 ppm): 100% | inhibition at 40 ppm: 100%

Cc1cccc(Oc2nsnc(Cl)c2=O)c1 [Compound 21, 3-chloro-5-(3-methylphenoxy)-4H--1,2,6-thiadiazin-4-one]
inhibition at 5 ppm: 27% | inhibition at 10 ppm: 33% | inhibition at 20 ppm (20 ppm): 100% | inhibition at 40 ppm: 100%

O=c1c(Cl)nsnc1Oc1ccc(Cl)cc1 [Compound 12, 3-chloro-5-(4-chlorophenoxy)-4H--1,2,6-thiadiazin-4-one]
inhibition at 5 ppm: 42% | inhibition at 10 ppm: 100% | inhibition at 20 ppm (20 ppm): 100% | inhibition at 40 ppm: 100%

CC(=O)c1cccc(Oc2nsnc(Cl)c2=O)c1 [Compound 48, 3-(3-acetylphenoxy)-5-chloro-4H--1,2,6-thiadiazin-4-one]
inhibition at 5 ppm: 78% | inhibition at 10 ppm: 42% | inhibition at 20 ppm (20 ppm): 100% | inhibition at 40 ppm: 100%

CC(=O)c1ccccc1Oc1nsnc(Cl)c1=O [Compound 49, 3-(2-acetylphenoxy)-5-chloro-4H--1,2,6-thiadiazin-4-one]
inhibition at 5 ppm: 47% | inhibition at 10 ppm: 87% | inhibition at 20 ppm (20 ppm): 96% | inhibition at 40 ppm: 100%

Cc1ccc(Oc2nsnc(Cl)c2=O)c(Br)c1 [Compound 57, 3-[(2-bromo-4-methyl)-phenoxy]-5-chloro-4H--1,2,6-thiadiazin-4-one]
inhibition at 5 ppm: 42% | inhibition at 10 ppm: 60% | inhibition at 20 ppm (20 ppm): 100% | inhibition at 40 ppm: 100%

Cc1cc(Oc2nsnc(Cl)c2=O)cc(C)c1Br [Compound 60, 3-[(4-bromo-3,5-dimethyl)-phenoxy]-5-chloro-4H--1,2,6-thiadiazin-4-one]
inhibition at 5 ppm: 9% | inhibition at 10 ppm: 0% | inhibition at 20 ppm (20 ppm): 0% | inhibition at 40 ppm: 13%

Nc1ccc(Oc2nsnc(Cl)c2=O)cc1 [Compound 26, 5-(4-aminophenoxy)-3-chloro-4H--1,2,6-thiadiazin-4-one]
inhibition at 5 ppm: 0% | inhibition at 10 ppm: 0% | inhibition at 40 ppm: 100% | Percent Fungus Growth Inhibition (20 ppm, 72 hours): 13%

O=c1c(Cl)nsnc1Oc1c(Cl)c(Cl)c(Cl)c(Cl)c1Cl [Compound 31, 3-chloro-5-(pentachlorophenoxy)-4H--1,2,6-thiadiazine-4-one]
inhibition at 5 ppm: 0% | inhibition at 10 ppm: 0% | inhibition at 20 ppm (20 ppm): 0% | inhibition at 40 ppm: 0%

O=c1c(Cl)nsnc1Oc1ccc(Br)cc1 [Compound 15, 3-chloro-5-(4-bromophenoxy)-4H--1,2,6-thiadiazin-4-one]
inhibition at 5 ppm: 47% | inhibition at 10 ppm: 76% | inhibition at 20 ppm (20 ppm): 80% | inhibition at 40 ppm: 76%
